This note sets out measurements from patent US4644010A, “Certain β-oxo-α-carbamoylpyrrolepropionitriles” (Ciba-Geigy Corporation, priority 1984, dated 1987).

Experiment [1] concerns phenyl-p-benzoquinone-induced writhing in mice. Put plainly: phenyl-p-benzoquinone-induced writhing test for analgesic activity. Type of experiment: in vivo. Conditions: mouse, dose ranging from about 1 to 30 mg/kg p.o. On the procedure:
The phenyl-p-benzoquinone-induced writhing test for analgesic activity, described in J. Pharmacol. Exp. Therap. 125, 237 (1959) is performed in mice as follows:
Mice previously fasted overnight are treated orally with the test compound dissolved in 0.75% methylcellulose at doses of 1 to 50 mg/kg, or with the vehicle alone, 55 minutes before the induction of the writhing syndrome by i.p. injection of 0.25 ml of a suspension of phenyl-p-benzoquinone (0.03%) in tragacanth (0.4%).
Starting 5 minutes, thereafter, the number of writhing movements provoked by the irritant are counted over an observation period of 10 minutes. The analgesic antinociceptive) ED50 of the test compound is the dose which reduces the mean frequency of writhing movements by 50% in comparison to the controls.
For orientation: An intraperitoneal irritant provokes the stretching counted in writhing tests.

Experiment [2] deals with established adjuvant arthritis in the rat. Briefly: established adjuvant arthritis test. Type of experiment: in vivo. As to conditions: dose ranging from about 5 to 25 mg/kg/p.o. How it is done: The established adjuvant arthritis test for anti-arthritic activity is performed essentially as described in Proc. Soc. Biol. Med. 137, 506 (1971).
The subject of experiment [3] is BCG-immunized adjuvant arthritic rat. Briefly: skin test (delayed hypersensitivity) in the BCG-immunized adjuvant arthritic rat. Conditions: 25 mg/kg/p.o. The format is in vivo. On the procedure:
The enhancement of cell-mediated immunity is determined in vivo in the BCG-immunized arthritic rat by measurement of delayed hypersensitivity reaction essentially as described in Current Therapeutic Research 30, S34 (1981).
Charles River male rats weighing 325-400 g are sensitized by intradermal injection into the right hind foot pad with […] per animal of Mycobacterium tuberculosis (Difco) emulsified in Freund's incomplete adjuvant. Animals are immunized with 0.1 ml of BCG vaccine intradermally on day 18 after adjuvant injection. Corn starch suspensions of drugs are administered orally. Control animals are dosed with cornstarch vehicle only. All animals are skin-tested with 10 μg PPD intradermally on day 29 to elicit skin reactions. The diameter of the erythema and induration reaction is measured 24 hours after antigen challenge. An increase in the diameter of the erythema is indicative of enhanced cellular immunity.

Experiment [4] relates to proteoglycan matrix of bovine nasal septum cartilage. Briefly: cartilage-synovium co-culture model of cartilage matrix degradation. Type of experiment: cell-based. Conditions: concentration range of about 10^-7 M to 10^-5 M. On the procedure:
The compounds of the invention are also active in the cartilage-synovium co-culture model of cartilage matrix degradation, indicative of their effectiveness in osteoarthritis. The screen is carried out as follows:
The proteoglycan matrix of bovine nasal septum cartilage is labeled into vitro by incorporation of ^35 S into glycosaminoglycan. Cartilage slices are incubated overnight in a sulfate-free medium containing ^35 S-sodium sulfate. ^35 S-Labeled cartilage slices are co-cultured with normal synovium explants in multiwell tissue culture plates. After 4 days incubation a 100 μl aliquot of medium is counted. Cartilage slices are hydrolyzed and a 100 μl aliquot of cartilage hydrolysate is counted. The percent ^35 S released into the medium is determined and the percent of inhibition of matrix degradation is calculated.

`N#CC(C(=O)Nc1ccc(F)cc1)C(=O)c1ccc[nH]1` (stereo not drawn) [Example 5, β-oxo-α-(4-fluorohenylcarbamoyl)-β-(2-pyrrolyl)-propionitrile]: the “activity in the phenyl-p-benzoquinone test for analgesia” value in experiment [1] is “active”. Further, in experiment [2], the “activity in the established adjuvant arthritis test” value is reported as “active”.
As to `N#CC(C(=O)Nc1ccc(Cl)cc1)C(=O)c1ccc[nH]1` (stereo not drawn) [Example 2, β-oxo-α-(4-chlorophenylcarbamoyl)-β-(2-pyrrolyl)propionitrile], the “activity in the phenyl-p-benzoquinone test for analgesia” value in experiment [1] is reported as “active”. Besides, the “activity in the established adjuvant arthritis test” value in experiment [2] is “active”. The “activity in the skin test (immunopotentiating activity)” value in experiment [3] was “significant activity”. Further, the “inhibition of cartilage matrix degradation in vitro” value (from here on “inhibition”) in experiment [4] is recorded as “inhibit cartilage matrix degradation”.
As to `N#CC(C(=O)Nc1ccccc1)C(=O)c1ccc[nH]1` (stereo not drawn) [Example 1, β-oxo-α-(phenylcarbamoyl)-β-(2-pyrrolyl)-propionitrile], the “activity in the phenyl-p-benzoquinone test for analgesia” value in experiment [1] is listed as “active”. Besides, in experiment [2], the “activity in the established adjuvant arthritis test” value is reported as “active”. Also, the “activity in the skin test (immunopotentiating activity)” value in experiment [3] is recorded as “significant activity”. For the same molecule, the “inhibition” value in experiment [4] is on record as “inhibit cartilage matrix degradation”.
Take `N#CC(C(=O)Nc1ccc(F)cc1F)C(=O)c1ccc[nH]1` (stereo not drawn) [Example 3, β-oxo-α-(2,4-difluorophenylcarbamoyl)-β-(2-pyrrolyl)-propionitrile]: in experiment [1], the “activity in the phenyl-p-benzoquinone test for analgesia” value was “active”. The “activity in the established adjuvant arthritis test” value in experiment [2] is on record as “active”. In experiment [4], the “inhibition” value is “inhibit cartilage matrix degradation”.
